Where a name gives a salt, the structure may show the parent alone.

Here are results for nine compounds from publication PMC10254530, “Design and Synthesis of Brefeldin A-Isothiocyanate Derivatives with Selectivity and Their Potential for Cervical Cancer Therapy” (Molecules, 2023).

The test system of test [1] is A375 cells. The experiment in a line: CCK-8 antiproliferative assay, A375. Type of test: cell-based. The note with it: Homo sapiens, A-375; CCK-8, 48 h, mean ± SD of three experiments; read-out: IC50 A375. How it is done:
(§1) All cells were cultured in Dulbecco’s Modified Eagle’s Medium (DMEM) (Burlington, MA, USA) or Roswell Park Memorial Institute (RPMI)-1640 medium containing 10% fetal bovine serum and 1% penicillin/streptomycin in an incubator at 37 °C and 5% CO2. […] Cell suspension with a concentration of 8 × 10^4 cells/mL was prepared after cell counting. 100 μL cell suspension was added to each well of the 96-well plate and then placed in an incubator overnight. Most of the derivatives were configured into 80 mM, 20 mM or 4 mM stock solution in DMSO, and the stock solution concentration of BFA and paclitaxel was 0.4 mM. […] The medium in each well was discarded, and 100 μL of gradient diluted derivative solution was added (the control group was added with serum-free medium).
For orientation: Tetrazolium assays rely on reduction of a dye to a coloured formazan, in cell work by metabolically active cells.

In test [2] the test system is A549 cells. The experiment in a line: CCK-8 antiproliferative assay, A549. Type of test: cell-based. The note with it: Homo sapiens, A549; CCK-8, 48 h, mean ± SD of three experiments; read-out: IC50 A549. How it is done: as §1
The test system of test [3] is L-02 cells. Nature of the test: CCK-8 cytotoxicity assay, normal liver L-02. The test is classed as cell-based. The note with it: Homo sapiens, L02; CCK-8, 48 h, normal liver cells, mean ± SD of three experiments; read-out: IC50 L-02. How it is done:
as §1

Test [4] has as its system HeLa cells. The experiment in a line: CCK-8 antiproliferative assay, HeLa. Type of test: cell-based, human. As to conditions: for IC50: Homo sapiens, HeLa, CCK-8, 48 h, mean ± SD of three experiments, read-out: IC50 HeLa; for SIHeLa, selectivity index between L-02 and HeLa: SI = IC50(L-02)/IC50(HeLa). How it is done:
as §1

Test [5] relates to HepG2 cells. The experiment in a line: CCK-8 antiproliferative assay, HepG2. The test is classed as cell-based. As to conditions: Homo sapiens, HepG2; CCK-8, 48 h, mean ± SD of three experiments; read-out: IC50 HepG2. How it is done: as §1
Test [6] deals with MDA-MB-231 cells. Nature of the test: CCK-8 antiproliferative assay, MDA-MB-231. The test is classed as cell-based. As to conditions: Homo sapiens, MDA-MB-231; CCK-8, 48 h, mean ± SD of three experiments; read-out: IC50 MDA-MB-231. How it is done:
as §1

For the compound `C[C@H]1CCC/C=C/[C@@H]2C[C@H](OC(=O)CCC(=O)OCCCCCCOC(=O)c3ccc(N=C=S)cc3)C[C@H]2[C@H](OC(=O)CCC(=O)OCCCCCCOC(=O)c2ccc(N=C=S)cc2)/C=C/C(=O)O1` [Compound 8e, Bis(6-((4-isothiocyanatobenzoyl)oxy)hexyl) O,O’-((1R,2E,6S,10E,11aS,13S,14aR)-6-methyl-4-oxo-1,6,7,8,9,11a,12,13,14,14a-decahydro-4H-cyclopenta[f][1]oxacyclotridecine-1,13-diyl) disuccinate], the IC50 in test [1] is more than 40 µM; in test [2], more than 40 µM; in test [3], more than 80 µM; in test [4], 26.8 ± 0.7 µM; in test [5], more than 40 µM; in test [6], more than 40 µM. For the same compound, the “SIHeLa, selectivity index between L-02 and HeLa” value in test [4] is given as more than 2.99.

For the compound `C[C@H]1CCC/C=C/[C@@H]2C[C@H](OC(=O)CCC(=O)OCCOC(=O)c3ccc(N=C=S)cc3)C[C@H]2[C@H](OC(=O)CCC(=O)OCCOC(=O)c2ccc(N=C=S)cc2)/C=C/C(=O)O1` [Compound 8a, Bis(2-((4-isothiocyanatobenzoyl)oxy)ethyl) O,O’-((1R,2E,6S,10E,11aS,13S,14aR)-6-methyl-4-oxo-1,6,7,8,9,11a,12,13,14,14a-decahydro-4H-cyclopenta[f][1]oxacyclotridecine-1,13-diyl) disuccinate], the concentration for half-maximal inhibition (IC50) in test [1] was more than 40 µM; in test [2] it was more than 40 µM; in test [3], more than 80 µM; in test [4], 12 ± 1.47 µM; in test [5] it was more than 40 µM; in test [6], more than 40 µM. For the same compound, the “SIHeLa, selectivity index between L-02 and HeLa” value in test [4] is given as more than 6.68.

In the case of `C[C@H]1CCC/C=C/[C@@H]2C[C@H](O)C[C@H]2[C@H](OC(=O)/C=C\C(=O)OCCCCOC(=O)c2ccc(N=C=S)cc2)/C=C/C(=O)O1` [Compound 9h, (1R,2E,6S,10E,11aS,13S,14aR)-13-Hydroxy-6-methyl-4-oxo-1,6,7,8,9,11a,12,13,14,14a-decahydro-4H-cyclopenta[f][1]oxacyclotridecin-1-yl (4-((4-isothiocyanatobenzoyl)oxy)butyl) maleate], the IC50 was 11.2 ± 0.29 µM in test [1]; 8.54 ± 0.26 µM in test [2]; 27.8 ± 1.39 µM in test [3]; 9.68 ± 0.24 µM in test [4]; 13.27 ± 0.1 µM in test [5]; 5.71 ± 0.2 µM in test [6]. In addition, the “SIHeLa, selectivity index between L-02 and HeLa” value in test [4] amounted to 2.87.

For the compound `C[C@H]1CCC/C=C/[C@@H]2C[C@H](OC(=O)/C=C\C(=O)OCCOCCOC(=O)c3ccc(N=C=S)cc3)C[C@H]2[C@H](OC(=O)/C=C\C(=O)OCCOCCOC(=O)c2ccc(N=C=S)cc2)/C=C/C(=O)O1` [Compound 8j, Bis(2-(2-((4-isothiocyanatobenzoyl)oxy)ethoxy)ethyl) O,O’-((1R,2E,6S,10E,11aS,13S,14aR)-6-methyl-4-oxo-1,6,7,8,9,11a,12,13,14,14a-decahydro-4H-cyclopenta[f][1]oxacyclotridecine-1,13-diyl) dimaleate], the IC50 in test [1] was more than 40 µM; in test [2], 23.79 ± 0.02 µM; in test [3], 21.27 ± 0.16 µM; in test [4] it was 30.6 ± 2.12 µM; in test [5], more than 40 µM; in test [6] it was more than 40 µM. Besides, the “SIHeLa, selectivity index between L-02 and HeLa” value in test [4] worked out at 0.70.

Take `C[C@H]1CCC/C=C/[C@@H]2C[C@H](O)C[C@H]2[C@H](OC(=O)/C=C\C(=O)OCCOCCOC(=O)c2ccc(N=C=S)cc2)/C=C/C(=O)O1` [Compound 9j, (1R,2E,6S,10E,11aS,13S,14aR)-13-Hydroxy-6-methyl-4-oxo-1,6,7,8,9,11a,12,13,14,14a-decahydro-4H-cyclopenta[f][1]oxacyclotridecin-1-yl (2-(2-((4-isothiocyanatobenzoyl)oxy)ethoxy)ethyl) maleate]: the IC50 came to 1.5 ± 0.05 µM in test [1]; 4.61 ± 0.12 µM in test [2]; 10.8 ± 0.57 µM in test [3]; 1.71 ± 0.02 µM in test [4]; 3.69 ± 0.14 µM in test [5]; 2.27 ± 0.03 µM in test [6]. Moreover, the “SIHeLa, selectivity index between L-02 and HeLa” value in test [4] stood at 6.29.

As to `C[C@H]1CCC/C=C/[C@@H]2C[C@H](O)C[C@H]2[C@H](OC(=O)CCC(=O)OCCCCCCOC(=O)c2ccc(N=C=S)cc2)/C=C/C(=O)O1` [Compound 9e, (1R,2E,6S,10E,11aS,13S,14aR)-13-Hydroxy-6-methyl-4-oxo-1,6,7,8,9,11a,12,13,14,14a-decahydro-4H-cyclopenta[f][1]oxacyclotridecin-1-yl (6-((4-isothiocyanatobenzoyl)oxy)hexyl) succinate], the half-maximal inhibitory concentration (IC50) in test [1] came to 3.87 ± 0.35 µM; in test [2], 2.59 ± 0.13 µM; in test [3] it was 7.87 ± 0.33 µM; in test [4], 0.81 ± 0.03 µM; in test [5] it was 5.77 ± 0.07 µM; in test [6], 1.56 ± 0.05 µM.

On to `C[C@H]1CCC/C=C/[C@@H]2C[C@H](O)C[C@H]2[C@H](OC(=O)CCC(=O)OCCOCCOC(=O)c2ccc(N=C=S)cc2)/C=C/C(=O)O1` [Compound 9d, (1R,2E,6S,10E,11aS,13S,14aR)-13-Hydroxy-6-methyl-4-oxo-1,6,7,8,9,11a,12,13,14,14a-decahydro-4H-cyclopenta[f][1]oxacyclotridecin-1-yl (2-(2-((4-isothiocyanatobenzoyl)oxy)ethoxy)ethyl) succinate], for which the IC50 worked out at 2.93 ± 0.12 µM in test [1]; 2.85 ± 0.1 µM in test [2]; 9.18 ± 0.13 µM in test [3]; 0.99 ± 0.02 µM in test [4]; 2.34 ± 0.31 µM in test [5]; 2.05 ± 0.27 µM in test [6].

With `C[C@H]1CCC/C=C/[C@@H]2C[C@H](OC(=O)/C=C\C(=O)OCCCCCCOC(=O)c3ccc(N=C=S)cc3)C[C@H]2[C@H](OC(=O)/C=C\C(=O)OCCCCCCOC(=O)c2ccc(N=C=S)cc2)/C=C/C(=O)O1` [Compound 8k, Bis(6-((4-isothiocyanatobenzoyl)oxy)hexyl) O,O’-((1R,2E,6S,10E,11aS,13S,14aR)-6-methyl-4-oxo-1,6,7,8,9,11a,12,13,14,14a-decahydro-4H-cyclopenta[f][1]oxacyclotridecine-1,13-diyl) dimaleate], the IC50 in test [1] was more than 40 µM; in test [2] it was more than 40 µM; in test [3], more than 80 µM; in test [4], more than 40 µM; in test [5] it was more than 40 µM; in test [6], more than 40 µM.

As for `C[C@H]1CCC/C=C/[C@@H]2C[C@H](OC(=O)CCC(=O)OCC#CCOC(=O)c3ccc(N=C=S)cc3)C[C@H]2[C@H](OC(=O)CCC(=O)OCC#CCOC(=O)c2ccc(N=C=S)cc2)/C=C/C(=O)O1` [Compound 8c, Bis(4-((4-isothiocyanatobenzoyl)oxy)but-2-yn-1-yl) O,O’-((1R,2E,6S,10E,11aS,13S,14aR)-6-methyl-4-oxo-1,6,7,8,9,11a,12,13,14,14a-decahydro-4H-cyclopenta[f][1]oxacyclotridecine-1,13-diyl) disuccinate], the IC50 is more than 40 µM in test [1]; more than 40 µM in test [2]; more than 80 µM in test [3]; 39 ± 1.43 µM in test [4]; more than 40 µM in test [5]; more than 40 µM in test [6]. In test [4], the “SIHeLa, selectivity index between L-02 and HeLa” value is more than 2.05.

As a reminder, the IC50 is the concentration that inhibits the measured activity by half.
